In general, MIC refers to the lowest concentration found to suppress growth.

The conditions of data set [1]: cited from earlier work.
The test system of data set [2] is MRSA ATCC BAA-1556 (USA300). In words: MIC by CLSI broth microdilution, MRSA. To be noted: for MIC: Staphylococcus aureus, read-out: MRSA MIC. It counts as cell-based, Staphylococcus aureus. The text has this:
(§1) In Vitro Susceptibility. Clinical and Laboratory Standards Institute (CLSI) guidelines were followed for the determination of the minimum inhibitory concentration (MIC), using cation-adjusted Mueller Hinton broth microdilution at a starting inoculum level of 5 × 10^5 colony forming units (CFUs) per mL [24, 25]. MIC was read by optical density on a BioTek Synergy H1 plate reader (BioTek, Winooski, VT, USA) at 595 nm. Strains used were MRSA ATCC BAA-1556 (USA300, SCCmecIV, pvl^+) and MSSA ATCC 29213 (American Type Culture Collection, Manassas, VA, USA). MIC data are reported as a range to reflect the fact that the value is determined using step dilution.
A general note: Dilution methods test growth across graded concentrations, often in twofold steps.

The subject of the next data set is MSSA ATCC 29213. In words: MIC by CLSI broth microdilution, MSSA. It counts as cell-based. As to conditions: Staphylococcus aureus, read-out: MSSA MIC.
Excerpt: as §1

Where a name gives a salt, the structure may show the parent alone. Read-outs that look alike come from different tables or passages of the source.

For the compound `CCCCCCCCCCNCCN[C@@]1(C)C[C@H](O[C@H]2[C@H](Oc3c4cc5cc3Oc3ccc(cc3Cl)[C@@H](O)[C@@H](NC(=O)[C@@H](CC(C)C)NC)C(=O)N[C@@H](CC(N)=O)C(=O)N[C@H]5C(=O)N[C@H]3C(=O)N[C@H](C(=O)N[C@H](C(=O)O)c5cc(O)c(CNCP(=O)(O)O)c(O)c5-c5cc3ccc5O)[C@H](O)c3ccc(c(Cl)c3)O4)O[C@H](CO)[C@@H](O)[C@@H]2O)O[C@@H](C)[C@H]1O` [telavancin, reference compound], in data set [1] (rats, inhalation of nebulized preparation), the “lung half-life, nebulized form” value was “ca. 21 days”.
On to `CCCCCCCCCCNC(=O)CN[C@@]1(C)C[C@H](O[C@H]2[C@H](Oc3c4cc5cc3Oc3ccc(cc3Cl)[C@@H](O)[C@@H](NC(=O)[C@@H](CC(C)C)NC)C(=O)N[C@@H](CC(N)=O)C(=O)N[C@H]5C(=O)N[C@H]3C(=O)N[C@H](C(=O)N[C@H](C(=O)O)c5cc(O)cc(O)c5-c5cc3ccc5O)[C@H](O)c3ccc(c(Cl)c3)O4)O[C@H](CO)[C@@H](O)[C@@H]2O)O[C@@H](C)[C@H]1O` [RV94, N^van-2-amino-N-decylacetamide vancomycin], for which the “pH needed to dissolve drug substance” value is recorded as above 9. The “lung half-life, nebulized form” value in data set [1] (rat, in vivo, inhaled or intranasal) is given as “approximately 4.5 days”. Besides, the “potency relative to vancomycin (fold more potent)” value in data set [2] (MIC, MSSA and MRSA isolates) is “ca. 15 fold”. Besides, the MIC in data set [2] (ATCC BAA-1556 (USA300), CLSI) was in the range of 0.031 to 0.063 µg/mL. Moreover, the MIC in the data set on MSSA ATCC 29213 (ATCC 29213, CLSI) fell in the range of 0.031 to 0.063 µg/mL.
On to `CN[C@H](CC(C)C)C(=O)N[C@H]1C(=O)N[C@@H](CC(N)=O)C(=O)N[C@H]2C(=O)N[C@H]3C(=O)N[C@H](C(=O)N[C@H](C(=O)O)c4cc(O)cc(O)c4-c4cc3ccc4O)[C@H](O)c3ccc(c(Cl)c3)Oc3cc2cc(c3O[C@@H]2O[C@H](CO)[C@@H](O)[C@H](O)[C@H]2O[C@H]2C[C@](C)(N)[C@H](O)[C@H](C)O2)Oc2ccc(cc2Cl)[C@H]1O` [Vancomycin, Vancomycin HCl, reference compound], for which the MIC was in the range of 0.5 to 2 µg/mL in data set [2] and 0.5 to 1 µg/mL with MSSA ATCC 29213.

Values taken from publication PMC10537538, “Preclinical Investigation of a Lipoglycopeptide Dry Powder Inhalation Therapy for the Treatment of Pulmonary MRSA Infection” (Pharmaceutics, 2023).
